Measured values: patent US5663159A, “Prodrugs of phosphonates” (Institute of Organic Chemistry and Biochemistry of the …, priority 1994, dated 1997)
≈ marks a conversion by molar mass, not a printed value. Entries after “also recorded” stand apart in the source; their conditions may differ. Where a name gives a salt, the structure may show the parent alone. Read-outs that look alike come from different tables or passages of the source.

Tests used:
[1] = tested on: herpes simplex virus, type 1 (HSV-1); details: literature; cited from earlier work
[2] = tested on: herpes simplex virus, type 2 (HSV-2); details: literature; cited from earlier work
[3] = tested on: varicella zoster virus (VZV); details: literature; cited from earlier work
[4] = tested on: human cytomegalovirus (HCMV); details: literature; cited from earlier work
[5] = tested on: adenovirus; details: literature; cited from earlier work
[6] = tested on: vaccinia virus; details: literature; cited from earlier work
[7] = tested on: thymidine kinase-deficient (TK^-) mutants of herpes simplex; details: literature; cited from earlier work
[8] = tested on: phocid herpesvirus type 1 (seal herpesvirus, SeHV); details: literature; cited from earlier work
[9] = tested on: simian herpesvirus platyrrhinae (HVP); details: literature; cited from earlier work
[10] = tested on: suid herpesvirus type 1 (SHV-1, or pseudorabies virus or Aujeszky's disease virus); details: literature; cited from earlier work
[11] = tested on: bovid herpesvirus type 1 (infectious bovine rhinotracheitis virus, BHV-1); details: literature; cited from earlier work
[12] = tested on: equid herpesviruse type 1 (equine abortion virus, EHV-1); details: literature; cited from earlier work
[13] = tested on: African swine fever (ASF) virus; details: literature; cited from earlier work
[14] = tested on: murine sarcoma virus (MSV); details: literature; cited from earlier work
[15] = tested on: herpes simplex virus type 1; details: mice in vivo; including herpetic keratitis caused by a TK^- mutant; cited from earlier work
[16] = tested on: herpes simplex virus type 1; details: rabbits in vivo; including herpetic keratitis caused by a TK^- mutant; cited from earlier work
[17] = tested on: P388 leukemia; details: murine tumor model; cited from earlier work
[18] = tested on: HSV-2 (G STRAIN); test: In vitro activity of PMEA prodrugs against HSV-2 (G strain), plaque reduction; assay type: cell-based; details: for IC50: Human alphaherpesvirus 2, dose which gives a 50% reduction of plaque formation, read-out: ID50 (the source's name); for ID50: dose which gives a 50% reduction of plaque formation
Excerpt: PRODRUGS AGAINST HSV-2 (G STRAIN)
^a DOSE WHICH GIVES A 50% REDUCTION OF PLACQUE FORMATION

[19] = tested on: human immunodeficiency virus (HIV); details: literature, cited from earlier work
[20] = tested on: Rauscher murine leukemia virus (R-MuLV); details: cited from earlier work
[21] = tested on: Rauscher murine leukemia virus (R-MuLV); details: mice; vs 3'-azido-3'-deoxythymidine (AZT); cited from earlier work
[22] = tested on: murine cytomegalovirus (MCMV); details: cited from earlier work
[23] = in vitro
[24] = Toxicity in the in vitro HSV-2 test
[25] = tested on: herpes viruses; details: cited from earlier work
[26] = tested on: HSV 1; details: in vivo, mice; more potent than acyclovir; cited from earlier work
[27] = tested on: B16 melanoma; details: murine tumor model; cited from earlier work

Nc1ncnc2c1ncn2C[C@@H](CO)OCP(=O)(O)O [(S)-HPMPA, (S)-9-((3-hydroxy-2-phosphonylmethoxy)propyl)adenine]
activity against HSV-1 [1]: potent and selective activity; also recorded: active
activity against HSV-2 [2]: potent and selective activity; also recorded: active
activity against VZV [3]: potent and selective activity; also recorded: active
activity against HCMV [4]: potent and selective activity
activity against adenovirus [5]: potent and selective activity; also recorded: active
activity against vaccinia virus [6]: potent and selective activity; also recorded: active
activity against TK^- mutants of herpes simplex [7]: potent and selective activity
activity against SeHV [8]: potent and selective activity
activity against HVP [9]: potent and selective activity
activity against SHV-1 [10]: potent and selective activity
activity against BHV-1 [11]: potent and selective activity
activity against EHV-1 [12]: potent and selective activity
activity against ASF virus [13]: potent and selective activity
activity against MSV [14]: potent and selective activity
efficacy against local and systemic HSV-1 infections [15]: effective
efficacy against local and systemic HSV-1 infections [16]: effective
activity against intraperitoneal P388 leukemia [17]: active

Nc1ccn(C[C@@H](CO)OCP(=O)(O)O)c(=O)n1 [(S)-HPMPC]
activity against HSV-1 [1]: active
activity against HSV-2 [2]: active
activity against HCMV [4]: active

Nc1nc(N)c2ncn(C[C@@H](CO)OCP(=O)(O)O)c2n1 [(S)-HPMPDAP]
activity against HSV-1 [1]: active
activity against HSV-2 [2]: active

Nc1nc2c(ncn2C[C@@H](CO)OCP(=O)(O)O)c(=O)[nH]1 [(S)-HPMPG]
activity against HSV-1 [1]: active
activity against HSV-2 [2]: active

Nc1ncnc2c1ncn2C[C@H]1COP(=O)(O)CO1 [(S)-cyclic HPMPA]
activity against HSV-1 [1]: active
activity against HSV-2 [2]: active
activity against VZV [3]: active
activity against adenovirus [5]: active
activity against vaccinia virus [6]: active

Nc1ncnc2c1ncn2CCOCP(=O)(O)O [Example 1, 9-(2-Phosphonylmethoxy)ethyladenine]
IC50 [18]: 39 µg/mL (≈ 143 µM)
activity against HSV-1 [1]: active
activity against HSV-2 [2]: active
activity against HCMV [4]: in vitro activity
activity against HIV ([19]; listed as PMEA): active; also recorded: good in vitro activity
in vitro activity against R-MuLV [20]: good in vitro activity
potency in vivo relative to AZT in the treatment of R-MuLV [21]: more potent in vivo
antiviral effect in vivo against MCMV [22]: significant antiviral effect
activity against intraperitoneal P388 leukemia [17]: active
CC50 [23]: > 166 µg/mL

CC(C)(C)C(=O)OCOP(=O)(COCCn1cnc2c(N)ncnc21)OCOC(=O)C(C)(C)C [Example 9, PMEA, di(pivaloyloxymethyl ester)]
IC50 [18]: 0.28 µg/mL (≈ 0.558 µM)
CC50 [23]: 100 µg/mL (≈ 199 µM)

CCC(=O)OCOP(=O)(COCCn1cnc2c(N)ncnc21)OCOC(=O)CC [Example 12, PMEA, di-(propionyloxymethyl ester)]
IC50 [18]: 0.17 µg/mL (≈ 0.382 µM)
CC50 [23]: 100 µg/mL (≈ 225 µM)

CC(C)C(=O)OCOP(=O)(COCCn1cnc2c(N)ncnc21)OCOC(=O)C(C)C [Example 13, PMEA, di-(isobutyrloxymethyl ester)]
IC50 [18]: < 0.1 µg/mL
CC50 [23]: 100 µg/mL (≈ 211 µM)

CC(C)(C)C(=O)OCOP(=O)(O)COCCn1cnc2c(N)ncnc21 [Example 15, PMEA, mono pivaloyloxymethyl ester]
IC50 [18]: 8.1 µg/mL (≈ 20.9 µM)
CC50 [24]: 100 µg/mL (≈ 258 µM)

CC(C)OP(=O)(COCCn1cnc2c(N)ncnc21)Oc1ccccc1 (centres unmarked) [Example 16, PMEA, (mono isopropyl, monophenyl) ester]
ID50 [18]: > 100 µg/mL
CC50 [24]: 100 µg/mL (≈ 256 µM)

Nc1ncnc2c1ncn2CCOCP(=O)(O)OCCCO [Example 22, PMEA, 3-hydroxypropanyl ester, (sodium salt)]
IC50 [18]: 110 µg/mL
CC50 [23]: > 166 µg/mL

Nc1ncnc2c1ncn2CCOCP(=O)(O)Oc1ccccc1 [Example 34, PMEA, monophenyl ester (sodium salt)]
ID50 [18]: 42 µg/mL
CC50 [24]: > 166 µg/mL

Nc1ncnc2c1ncn2CCOCP(=O)(Oc1ccccc1)Oc1ccccc1 [Example 35, PMEA, diphenyl ester]
ID50 [18]: 34 µg/mL (≈ 79.9 µM)
CC50 [24]: > 166 µg/mL

Nc1nc(N)c2ncn(CCOCP(=O)(O)O)c2n1 [PMEDAP]
activity against HSV-1 [1]: active
activity against HSV-2 [2]: active
activity against HIV [19]: active

Nc1nc2c(ncn2CCOCP(=O)(O)O)c(=O)[nH]1 [PMEG]
activity against HSV-1 [1]: active
activity against HSV-2 [2]: active
in vitro potency against herpes viruses [25]: exceptionally potent
potency relative to acyclovir against HSV 1 infection [26]: > 50 fold
activity against intraperitoneal P388 leukemia [17]: active
activity against B16 melanoma [27]: active

Nc1ncc2ncn(CCOCP(=O)(O)O)c2n1 [PMEMAP]
activity against HIV [19]: active
